{
  "source": "patent US9862706B2",
  "about": "“Compounds” (CHIESI FARMACEUTICI S.P.A., priority 2016, dated 2018)",
  "target": "T1, human neutrophil elastase (HNE) (Homo sapiens, UniProt P08246)",
  "T1 construct": "purchased Sigma E8140",
  "T1 sequence (P08246 30-247 limits assumed)": "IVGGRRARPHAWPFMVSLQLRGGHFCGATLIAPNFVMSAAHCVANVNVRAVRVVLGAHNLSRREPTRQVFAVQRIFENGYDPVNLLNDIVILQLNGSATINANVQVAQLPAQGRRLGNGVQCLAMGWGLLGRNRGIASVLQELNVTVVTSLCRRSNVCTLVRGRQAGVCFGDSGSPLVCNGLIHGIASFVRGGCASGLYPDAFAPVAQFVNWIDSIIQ",
  "assay": "HNE enzyme assay",
  "assay_type": "biochemical",
  "settings": "human leukocyte elastase 0.00072 U/mL; substrate MeOSuc-Ala-Ala-Pro-Val-AMC 100 μM; 25° C., 30 minutes; at least two separate experiments; read-out: HNE inhibition",
  "method": "Compounds of this invention were tested for potency in a human neutrophil elastase (HNE) enzyme activity assay. HNE Enzyme Assay Assays were performed in 96-well plates in a total assay volume of 100 μL. The final concentration of elastase enzyme (human leukocyte elastase, Sigma E8140) was 0.00072 U/mL. The peptide substrate (MeOSuc-[…], Calbiochem #324740) was used at a final concentration of 100 μM. The final concentration of DMSO was 1% in the assay buffer (0.05M Tris.HCl, 0.1M NaCl, 0.1M CaCl2, 0.0005% brij-35, pH 7.5). The enzymatic reaction was started by addition of the enzyme and incubated at 25° C. for 30 minutes. After incubation, the reaction was stopped by addition of soybean trypsin inhibitor (Sigma T9003) at a final concentration of 50 μg/well. Fluorescence was measured using a Molecular Devices fluorescence plate reader using 380 nm excitation and 460 nm emission wavelengths. A dose response to each compound was performed and the effect of compound in each experiment was expressed as a percentage inhibition of the control enzyme fluorescence. Dose response curves were plotted and compound potency (IC50) was determined. Compounds were tested in at least two separate experiments.",
  "data": [
    {"molecule": "Cc1c(-c2n(-c3ccc(C#N)cc3)cc[n+]2C)n(C(=O)NC2CCCC2)c(=O)n1-c1cccc(C(F)(F)F)c1", "note": "[Example 1, 1-(4-Cyanophenyl)-2-{3-(cyclopentylcarbamoyl)-5-methyl-2-oxo-1-[3-(trifluoromethyl)phenyl]-2,3-dihydro-1H-imidazol-4-yl}-3-methyl-1H-imidazol-3-ium benzene sulfonate]", "values": [
      {"measurement": "IC50", "value": "< 1", "unit": "nM"}
    ]},
    {"molecule": "Cc1c(-c2n(-c3ccc(C#N)cc3)cc[n+]2Cc2ccccc2)n(C(=O)NC2CCCC2)c(=O)n1-c1cccc(C(F)(F)F)c1", "note": "[Example 2, 1-(4-Cyanophenyl)-2-{3-(cyclopentylcarbamoyl)-5-methyl-2-oxo-1-[3-(trifluoromethyl)phenyl]-2,3-dihydro-1H-imidazol-4-yl}-3-benzyl-1H-imidazol-3-ium bromide]", "values": [
      {"measurement": "IC50", "value": "< 1", "unit": "nM"}
    ]},
    {"molecule": "Cc1c(-c2n(-c3ccc(C#N)cc3)cc[n+]2C)n(C(=O)NC2CCC2)c(=O)n1-c1cccc(C(F)(F)F)c1", "note": "[Example 3, 1-(4-Cyanophenyl)-2-{3-(cyclobutylcarbamoyl)-5-methyl-2-oxo-1-[3-(trifluoromethyl)phenyl]-2,3-dihydro-1H-imidazol-4-yl}-3-methyl-1H-imidazol-3-ium benzene sulfonate]", "values": [
      {"measurement": "IC50", "value": "< 1", "unit": "nM"}
    ]},
    {"molecule": "Cc1c(-c2n(-c3ccc(C#N)cc3)cc[n+]2C)n(C(=O)NC2CCN(C(=O)C(F)(F)F)CC2)c(=O)n1-c1cccc(C(F)(F)F)c1", "note": "[Example 4, 1-(4-Cyanophenyl)-2-{3-[1-(2,2,2-trifluoro-acetyl)-piperidin-4-ylcarbamoyl]-5-methyl-2-oxo-1-[3-(trifluoromethyl)phenyl]-2,3-dihydro-1H-imidazol-4-yl}-3-methyl-1H-imidazol-3-ium benzene sulfonate]", "values": [
      {"measurement": "IC50", "value": "< 1", "unit": "nM"}
    ]},
    {"molecule": "Cc1c(-c2n(-c3ccc(C#N)cc3)cc[n+]2C)n(C(=O)NCc2ccc(S(C)(=O)=O)cc2)c(=O)n1-c1cccc(C(F)(F)F)c1", "note": "[Example 5, 1-(4-Cyanophenyl)-2-{3-(4-methanesulfonyl-benzylcarbamoyl)-5-methyl-2-oxo-1-[3-(trifluoromethyl)phenyl]-2,3-dihydro-1H-imidazol-4-yl}-3-methyl-1H-imidazol-3-ium benzene sulfonate]", "values": [
      {"measurement": "IC50", "value": "1 to 10", "unit": "nM"}
    ]},
    {"molecule": "Cc1c(-c2n(-c3ccc(C#N)cc3)nc[n+]2C)n(C(=O)NC2CCCC2)c(=O)n1-c1cccc(C(F)(F)F)c1", "note": "[Example 6, 1-(4-Cyano-phenyl)-5-[3-cyclopentylcarbamoyl-5-methyl-2-oxo-1-(3-trifluoromethyl-phenyl)-2,3-dihydro-1H-imidazol-4-yl]-4-methyl-1H-[1,2,4]triazol-4-ium benzene sulfonate]", "values": [
      {"measurement": "IC50", "value": "< 1", "unit": "nM"}
    ]},
    {"molecule": "Cn1c(-c2n(-c3ccc(C#N)cc3)cc[n+]2C)c(C(=O)NC2CCCC2)c(=O)n1-c1cccc(C(F)(F)F)c1", "note": "[Example 7, 3-(4-Cyano-phenyl)-2-[4-cyclopentylcarbamoyl-2-methyl-5-oxo-1-(3-trifluoromethyl-phenyl)-2,5-dihydro-1H-pyrazol-3-yl]-1-methyl-3H-imidazol-1-ium benzenesulfonate]", "values": [
      {"measurement": "IC50", "value": "< 1", "unit": "nM"}
    ]},
    {"molecule": "Cn1c(-c2n(-c3ccc(C#N)cc3)nc[n+]2C)c(C(=O)NC2CCCC2)c(=O)n1-c1cccc(C(F)(F)F)c1", "note": "[Example 8, 1-(4-cyano-phenyl)-5-[4-cyclopentylcarbamoyl-2-methyl-5-oxo-1-(3-trifluoromethyl-phenyl)-2,5-dihydro-1H-pyrazol-3-yl]-4-methyl-1H-[1,2,4]triazol-4-ium benzenesulfonate]", "values": [
      {"measurement": "IC50", "value": "< 1", "unit": "nM"}
    ]},
    {"molecule": "Cc1c(-c2ccnn2-c2ccc(C#N)cc2CC[N+](C)(C)C)n(C(=O)NC2CCCC2)c(=O)n1-c1cccc(C(F)(F)F)c1", "note": "[Example 9, [2-(5-Cyano-2-{5-[3-cyclopentylcarbamoyl-5-methyl-2-oxo-1-(3-trifluoromethyl-phenyl)-2,3-dihydro-1H-imidazol-4-yl]-pyrazol-1-yl}-phenyl)-ethyl]-trimethyl-ammonium benzene sulfonate]", "values": [
      {"measurement": "IC50", "value": "< 1", "unit": "nM"}
    ]},
    {"molecule": "Cc1c(-c2ccnn2-c2ccc(C#N)cc2CC[N+](C)(C)Cc2ccccc2)n(C(=O)NC2CCCC2)c(=O)n1-c1cccc(C(F)(F)F)c1", "note": "[Example 10, Benzyl-[2-(5-cyano-2-{5-[3-cyclopentylcarbamoyl-5-methyl-2-oxo-1-(3-trifluoromethyl-phenyl)-2,3-dihydro-1H-imidazol-4-yl]-pyrazol-1-yl}-phenyl)-ethyl]-dimethyl-ammonium bromide]", "values": [
      {"measurement": "IC50", "value": "< 1", "unit": "nM"}
    ]},
    {"molecule": "Cc1c(-c2ccnn2-c2ccc(C#N)cc2CC[N+](C)(C)C)n(C(=O)NC2CCCCC2)c(=O)n1-c1cccc(C(F)(F)F)c1", "note": "[Example 11, [2-(5-Cyano-2-{5-[3-cyclohexylcarbamoyl-5-methyl-2-oxo-1-(3-trifluoromethyl-phenyl)-2,3-dihydro-1H-imidazol-4-yl]-pyrazol-1-yl}-phenyl)-ethyl]-trimethyl-ammonium benzene sulphonate]", "values": [
      {"measurement": "IC50", "value": "< 1", "unit": "nM"}
    ]},
    {"molecule": "Cc1c(-c2ccnn2-c2ccc(C#N)cc2CC[N+](C)(C)C)n(C(=O)NC2CC2)c(=O)n1-c1cccc(C(F)(F)F)c1", "note": "[Example 12, [2-(5-Cyano-2-{5-[3-cyclopropylcarbamoyl-5-methyl-2-oxo-1-(3-trifluoromethyl-phenyl)-2,3-dihydro-1H-imidazol-4-yl]-pyrazol-1-yl}-phenyl)-ethyl]-trimethyl-ammonium benzene sulphonate]", "values": [
      {"measurement": "IC50", "value": "< 1", "unit": "nM"}
    ]},
    {"molecule": "CCNC(=O)n1c(-c2ccnn2-c2ccc(C#N)cc2CC[N+](C)(C)C)c(C)n(-c2cccc(C(F)(F)F)c2)c1=O", "note": "[Example 13, [2-(5-Cyano-2-{5-[3-ethylcarbamoyl-5-methyl-2-oxo-1-(3-trifluoromethyl-phenyl)-2,3-dihydro-1H-imidazol-4-yl]-pyrazol-1-yl}-phenyl)-ethyl]-trimethyl-ammonium benzene sulphonate]", "values": [
      {"measurement": "IC50", "value": "< 1", "unit": "nM"}
    ]},
    {"molecule": "Cc1c(-c2ccnn2-c2ccc(C#N)cc2CC[N+](C)(C)C)n(C(=O)NC(C)C)c(=O)n1-c1cccc(C(F)(F)F)c1", "note": "[Example 14, [2-(5-Cyano-2-{5-[3-isopropylcarbamoyl-5-methyl-2-oxo-1-(3-trifluoromethyl-phenyl)-2,3-dihydro-1H-imidazol-4-yl]-pyrazol-1-yl}-phenyl)-ethyl]-trimethyl-ammonium benzene sulphonate]", "values": [
      {"measurement": "IC50", "value": "< 1", "unit": "nM"}
    ]},
    {"molecule": "Cn1c(-c2ccnn2-c2ccc(C#N)cc2CC[N+](C)(C)C)c(C(=O)NC2CCCC2)c(=O)n1-c1cccc(C(F)(F)F)c1", "note": "[Example 15, (2-{5-Cyano-2-[4′-cyclopentylcarbamoyl-2′-methyl-5′-oxo-1′-(3-trifluoromethyl-phenyl)-2′,5′-dihydro-1′H-[3,3′]bipyrazolyl-2-yl]-phenyl}-ethyl)-trimethyl-ammonium benzene sulfonate]", "values": [
      {"measurement": "IC50", "value": "< 1", "unit": "nM"}
    ]},
    {"molecule": "Cn1c(-c2ccnn2-c2ccc(C#N)cc2CC[N+](C)(C)Cc2ccccc2)c(C(=O)NC2CCCC2)c(=O)n1-c1cccc(C(F)(F)F)c1", "note": "[Example 16, Benzyl-(2-{5-cyano-2-[4′-cyclopentylcarbamoyl-2′-methyl-5′-oxo-1′-(3-trifluoromethyl-phenyl)-2′,5′-dihydro-1′H-[3,3′]bipyrazolyl-2-yl]-phenyl}-ethyl)-dimethyl-ammonium bromide]", "values": [
      {"measurement": "IC50", "value": "< 1", "unit": "nM"}
    ]},
    {"molecule": "Cn1c(-c2ccnn2-c2ccc(C#N)cc2CC[N+](C)(C)C)c(C(=O)NC2CCCCC2)c(=O)n1-c1cccc(C(F)(F)F)c1", "note": "[Example 17, (2-{5-Cyano-2-[4′-cyclohexylcarbamoyl-2′-methyl-5′-oxo-1′-(3-trifluoromethyl-phenyl)-2′,5′-dihydro-1′H-[3,3′]bipyrazolyl-2-yl]-phenyl}-ethyl)-trimethyl-ammonium benzene sulfonate]", "values": [
      {"measurement": "IC50", "value": "< 1", "unit": "nM"}
    ]}
  ]
}
